This note sets out measurements from ChEMBL document CHEMBL1201862, “PubChem BioAssay data set” (2004).

Some test systems named below: NCI-H226; OVCAR-3; HCT-15; SNB-19; HCT-116; MOLT-4; 786-0; BT-549; KM12; IGROV-1; MDA-N; SW-620; PC-3; SF-268; CAKI-1; NCI-H23; MDA-MB-231; Hs-578T; HOP-92; OVCAR-4.
Common to all, as to assay: NCI tumour cell line growth inhibition, 48 h

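These data come from cells grown in 96-well plates and exposed to compound for 48 hours at five concentrations. Here, GI50 denotes the concentration required for 50% inhibition of growth.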 Activity calls are given as the source filed them. Cut-off read from the data, not from the text of the source: active = GI50 up to about 1.1 µM and inactive = higher.

As for `CSc1nn(C)cc2nc(C)nc1-2`, the GI50 was > 100 µM (inactive) with NCI-H226; > 100 µM (inactive) with OVCAR-3; more than 100 µM in the assay with HCT-15; > 100 µM (inactive) in the assay on SNB-19; > 100 µM (inactive) in the assay on HCT-116; > 100 µM (inactive) in the assay with MOLT-4. Moreover, the GI50 in the assay with 786-0, with BT-549, with KM12, in the assay with IGROV-1, in the assay on MDA-N and in the assay on SW-620 was > 100 µM (inactive) throughout. Besides, the GI50 in the assay on PC-3, in the assay with SF-268, in the assay with CAKI-1, in the assay with NCI-H23, with MDA-MB-231 and in the assay with Hs-578T was > 100 µM (inactive) each time.
`S=C1NC2=C(COc3ccccc32)C(c2ccc(Cl)cc2)N1` (stereo not drawn): the GI50 is 17.6 µM (inactive) in the assay with NCI-H226; 15.3 µM (inactive) in the assay on OVCAR-3; 22.9 µM (inactive) in the assay with SNB-19; 15.5 µM (inactive) with HCT-116; 12.8 µM (inactive) in the assay on MOLT-4; 19.2 µM (inactive) in the assay with 786-0. Besides, the GI50 in the assay with BT-549 is 21.1 µM (inactive); in the assay on KM12, 16.2 µM (inactive); in the assay on IGROV-1 it was 16.6 µM (inactive); in the assay with MDA-N, 16.4 µM (inactive); in the assay with SW-620, 28.6 µM (inactive); with PC-3 it was 13.4 µM (inactive). Moreover, the GI50 is > 10 µM (inactive) in the assay with HOP-92; 17.6 µM (inactive) in the assay on SF-268; 21.7 µM (inactive) in the assay on NCI-H23; 17.4 µM (inactive) in the assay with MDA-MB-231; 21.6 µM (inactive) with Hs-578T.
As for `CC1(C)/C(=N\NC(N)=O)C2CCC1C2` (stereo not drawn), the GI50 was > 100 µM (inactive) in the assay with NCI-H226; > 100 µM (inactive) with OVCAR-3; more than 100 µM in the assay with HCT-15; > 100 µM (inactive) in the assay on SNB-19; > 100 µM (inactive) in the assay on HCT-116; > 100 µM (inactive) in the assay on MOLT-4. The GI50 with 786-0, in the assay with OVCAR-4, with BT-549, in the assay with KM12, with IGROV-1 and in the assay on MDA-N was > 100 µM (inactive) in each case. Moreover, the GI50 in the assay on SW-620, in the assay on PC-3, in the assay with HOP-92, in the assay on SF-268, in the assay with CAKI-1 and in the assay with NCI-H23 was > 100 µM (inactive) each time. Moreover, the GI50 in the assay with Hs-578T was > 100 µM (inactive).
In the case of `CCNC(=S)NNC(=O)c1ccccc1Nc1ccccc1C(=O)NNC(=S)NCC`, the GI50 was > 100 µM (inactive) with NCI-H226; > 100 µM (inactive) in the assay on OVCAR-3; more than 100 µM in the assay on HCT-15; > 100 µM (inactive) with SNB-19; > 100 µM (inactive) in the assay on HCT-116; > 100 µM (inactive) in the assay with MOLT-4. Further, the GI50 with 786-0, with OVCAR-4, in the assay on BT-549, in the assay on KM12, in the assay on IGROV-1 and in the assay on MDA-N was > 100 µM (inactive) each time. Also, the GI50 in the assay with SW-620, with PC-3, in the assay with HOP-92, in the assay with NCI-H23, in the assay with MDA-MB-231 and in the assay with Hs-578T was > 100 µM (inactive) throughout.
As for `O=C1CSc2nnc(CCCCCCCCc3nnc4n3NC(=O)CS4)n2N1`, the GI50 with NCI-H226 was > 100 µM (inactive); in the assay with OVCAR-3 it was > 100 µM (inactive); in the assay with HCT-15 it was 37.2 µM; with SNB-19, 32.1 µM (inactive); in the assay with HCT-116, 91.2 µM (inactive); with MOLT-4, 31.3 µM (inactive). In addition, the GI50 in the assay on 786-0 is 32.6 µM (inactive); in the assay with OVCAR-4 it was > 100 µM (inactive); in the assay with BT-549, 56.8 µM (inactive); in the assay with KM12, > 100 µM (inactive); in the assay with IGROV-1, 42.6 µM (inactive); in the assay on MDA-N, > 100 µM (inactive). The GI50 was 73.6 µM (inactive) with SW-620; > 100 µM (inactive) in the assay on PC-3; 82 µM (inactive) in the assay on HOP-92; 43.3 µM (inactive) in the assay with SF-268; > 100 µM (inactive) with CAKI-1; > 100 µM (inactive) in the assay on NCI-H23. In addition, the GI50 in the assay on MDA-MB-231 is 69.3 µM (inactive).
Regarding `CC(=O)OCC1OC(n2c(C)c(/N=N/c3ccc(Cl)cc3)c(C)c(C#N)c2=S)C(OC(C)=O)C(OC(C)=O)C1OC(C)=O` (stereo not drawn), the GI50 in the assay with OVCAR-3 was > 100 µM (inactive); with HCT-15 it was more than 100 µM; in the assay on SNB-19 it was 28.8 µM (inactive); in the assay with HCT-116, 48.1 µM (inactive); in the assay with MOLT-4, > 100 µM (inactive); with 786-0 it was 19.9 µM (inactive). In addition, the GI50 in the assay with OVCAR-4 is > 100 µM (inactive); in the assay on BT-549, 15.3 µM (inactive); with KM12, > 100 µM (inactive); in the assay with IGROV-1 it was 41.8 µM (inactive); in the assay with MDA-N, > 100 µM (inactive); in the assay on SW-620, > 100 µM (inactive). Besides, the GI50 in the assay on PC-3 is > 100 µM (inactive); in the assay on HOP-92, 0.205 µM (active); with SF-268 it was 27.9 µM (inactive); in the assay with CAKI-1, 50.8 µM (inactive); in the assay on NCI-H23, > 100 µM (inactive); in the assay with MDA-MB-231, 65.2 µM (inactive). For the same compound, the GI50 in the assay with Hs-578T was 21.5 µM (inactive).
Regarding `CSC1=N/C(=C\c2ccco2)C(=O)N1CN1CCOCC1`, the GI50 in the assay on NCI-H226 is 75 µM (inactive); with OVCAR-3 it was > 100 µM (inactive); with HCT-15 it was 33.7 µM; in the assay on SNB-19, > 93.1 µM (inactive); with HCT-116 it was 29.2 µM (inactive); in the assay on MOLT-4, 59.7 µM (inactive). For the same compound, the GI50 with 786-0 is 48.6 µM (inactive); in the assay on OVCAR-4, > 100 µM (inactive); in the assay on BT-549, 19.4 µM (inactive); in the assay on KM12, > 70.1 µM (inactive); with IGROV-1, > 61.1 µM (inactive); with MDA-N, > 100 µM (inactive). Moreover, the GI50 is 31.7 µM (inactive) in the assay with SW-620; > 93.8 µM (inactive) in the assay with PC-3; > 44.4 µM (inactive) in the assay with SF-268; 32 µM (inactive) in the assay on CAKI-1; > 100 µM (inactive) with NCI-H23; > 63.1 µM (inactive) in the assay with MDA-MB-231. Also, the GI50 in the assay with Hs-578T was > 100 µM (inactive).
As to `Clc1ccc2c(NCCCC/N=C/c3ccccc3)ccnc2c1`, the GI50 in the assay on NCI-H226 is 4.33 µM (inactive); in the assay with OVCAR-3, 16.5 µM (inactive); with HCT-15, 17.8 µM; in the assay on SNB-19, 14.8 µM (inactive); with HCT-116, 6.24 µM (inactive); with MOLT-4 it was 2.82 µM (inactive). Also, the GI50 in the assay on 786-0 was 9.16 µM (inactive); with OVCAR-4, 10.5 µM (inactive); in the assay on BT-549, 13.4 µM (inactive); in the assay with KM12, 7.98 µM (inactive); in the assay with IGROV-1, 11.8 µM (inactive); in the assay with MDA-N it was 11.7 µM (inactive). In addition, the GI50 was 5.78 µM (inactive) with SW-620; 10.4 µM (inactive) with PC-3; 5.52 µM (inactive) in the assay on HOP-92; 14.2 µM (inactive) in the assay with SF-268; 11 µM (inactive) with NCI-H23; 13.6 µM (inactive) in the assay on MDA-MB-231. For the same compound, the GI50 in the assay with Hs-578T was 11.6 µM (inactive).
As for `O=C(O)C[n+]1cn(NC(=O)Cc2ccccc2)cn1`, the GI50 in the assay on OVCAR-3 was > 10 µM (inactive); in the assay on HCT-15 it was more than 10 µM; in the assay on SNB-19, > 10 µM (inactive); with HCT-116, > 10 µM (inactive); in the assay on MOLT-4 it was > 10 µM (inactive); in the assay on 786-0, > 10 µM (inactive). The GI50 with OVCAR-4, with BT-549, in the assay on KM12, in the assay on IGROV-1, with MDA-N and with SW-620 was > 10 µM (inactive) in each case. Also, the GI50 in the assay with HOP-92 is > 10 µM (inactive); in the assay with SF-268, > 10 µM (inactive); in the assay on CAKI-1, > 10 µM (inactive); in the assay on NCI-H23, > 10 µM (inactive); in the assay with MDA-MB-231, > 10 µM (inactive); in the assay on Hs-578T, 0.158 µM (active).
Turning to `CCCCOC(=O)C(O)Cc1ccoc1` (stereo not drawn), the GI50 in the assay on NCI-H226 is > 100 µM (inactive); in the assay on OVCAR-3, > 100 µM (inactive); in the assay on HCT-15, more than 100 µM; in the assay on SNB-19, > 100 µM (inactive); in the assay on HCT-116 it was > 100 µM (inactive); with MOLT-4, > 100 µM (inactive). The GI50 with 786-0, with OVCAR-4, in the assay with BT-549, in the assay with KM12, in the assay with IGROV-1 and in the assay with MDA-N was > 100 µM (inactive) each time. In addition, the GI50 with SW-620, in the assay on PC-3, with SF-268, in the assay with NCI-H23, with MDA-MB-231 and in the assay on Hs-578T was > 100 µM (inactive) each time.
As for `C[C@]12CC[C@@H]3c4ccc(OP(=O)(O)O)cc4CC[C@H]3[C@@H]1CCC2=O`, the GI50 in the assay with OVCAR-3 is 62.8 µM (inactive); with HCT-15 it was more than 100 µM; in the assay on SNB-19, > 100 µM (inactive); with HCT-116 it was 55.1 µM (inactive); in the assay on MOLT-4, 54 µM (inactive); with 786-0, > 100 µM (inactive). Besides, the GI50 in the assay with OVCAR-4 is 50.9 µM (inactive); in the assay on BT-549 it was 67.6 µM (inactive); in the assay on KM12, 54.5 µM (inactive); in the assay with IGROV-1 it was > 100 µM (inactive); with MDA-N it was 58.5 µM (inactive); with SW-620 it was 63.7 µM (inactive). For the same compound, the GI50 with PC-3 is 62.4 µM (inactive); in the assay with HOP-92 it was > 100 µM (inactive); with SF-268, > 100 µM (inactive); in the assay with CAKI-1, > 100 µM (inactive); in the assay on NCI-H23 it was 63.1 µM (inactive); in the assay on MDA-MB-231 it was 80.7 µM (inactive). In addition, the GI50 in the assay on Hs-578T is 41.3 µM (inactive).
